Laboratory results as given in ChEMBL document CHEMBL4414615, “Sparticolins A-G, Biologically Active Oxidized Spirodioxynaphthalene Derivatives from the Ascomycete Sparticola junci” (J Nat Prod, 2019).
In brackets after ≈: the same amount, converted by molar mass. Activity calls are given as the source filed them. The calls are words filed in the database; no cut-off is given here.

How the values were obtained:
[1] = tested on: PC-3; test: Cytotoxicity against human PC3 cells assessed as reduction in cell growth incubated for 5 days by MTT assay; type: functional, cell-based
[2] = tested on: SK-OV-3; test: Cytotoxicity against human SKOV3 cells assessed as reduction in cell growth incubated for 5 days by MTT assay; type: functional, cell-based
[3] = tested on: MCF7; test: Cytotoxicity against human MCF7 cells assessed as reduction in cell growth incubated for 5 days by MTT assay; type: functional, cell-based
[4] = tested on: KB 3-1; test: Cytotoxicity against human KB3-1 cells assessed as reduction in cell growth incubated for 5 days by MTT assay; type: functional, cell-based
[5] = tested on: A549; test: Cytotoxicity against human A549 cells assessed as reduction in cell growth incubated for 5 days by MTT assay; type: functional, cell-based
[6] = tested on: A-431; test: Cytotoxicity against human A431 cells assessed as reduction in cell growth incubated for 5 days by MTT assay; type: functional, cell-based
[7] = tested on: L929; test: Cytotoxicity against mouse L929 cells assessed as reduction in cell growth incubated for 5 days by MTT assay; type: functional, cell-based
[8] = tested on: Chromobacterium violaceum; test: Antibacterial activity against Chromobacterium violaceum DSM 30191 incubated for 24 hrs by broth microdilution method; type: functional; details: DSM 30191, 24 h
[9] = tested on: Staphylococcus aureus; test: Antibacterial activity against Staphylococcus aureus DSM 346 incubated for 24 hrs by broth microdilution method; type: functional; details: DSM 346, 24 h
[10] = tested on: Micrococcus luteus; test: Antibacterial activity against Micrococcus luteus DSM 1790 incubated for 24 hrs by broth microdilution method; type: functional; details: DSM 1790, 24 h
[11] = tested on: Escherichia coli; test: Antibacterial activity against Escherichia coli DSM 1116 incubated for 24 hrs by broth microdilution method; type: functional; details: DSM 1116, 24 h
[12] = tested on: Bacillus subtilis; test: Antibacterial activity against Bacillus subtilis DSM 10 incubated for 24 hrs by broth microdilution method; type: functional; details: DSM 10, 24 h
[13] = tested on: Mycolicibacterium smegmatis; test: Antibacterial activity against Mycobacterium smegmatis ATCC 700084 incubated for 24 hrs by broth microdilution method; type: functional; details: ATCC 700084, 24 h
[14] = tested on: Escherichia coli; test: Antibacterial activity against Escherichia coli DSM 1116 at 66 ug/ml incubated for 24 hrs by broth microdilution method; type: functional, organism-based
[15] = tested on: Rhodotorula glutinis; test: Antifungal activity against Rhodotorula glutinis DSM 10134 at 66 ug/ml incubated for 48 hrs by broth microdilution method; type: functional, organism-based
[16] = tested on: Candida albicans; test: Antifungal activity against Candida albicans DSM 1665 at 66 ug/ml incubated for 48 hrs by broth microdilution method; type: functional, organism-based
[17] = tested on: Pseudomonas aeruginosa; test: Antibacterial activity against Pseudomonas aeruginosa DSM PA14 at 66 ug/ml incubated for 24 hrs by broth microdilution method; type: functional, organism-based
[18] = tested on: Mycolicibacterium smegmatis; test: Antibacterial activity against Mycobacterium smegmatis ATCC 700084 at 66 ug/ml incubated for 24 hrs by broth microdilution method; type: functional, organism-based
[19] = tested on: Mucor hiemalis; test: Antifungal activity against Mucor hiemalis DSM 2656 at 66 ug/ml incubated for 48 hrs by broth microdilution method; type: functional, organism-based
[20] = tested on: Chromobacterium violaceum; test: Antibacterial activity against Chromobacterium violaceum DSM 30191 at 66 ug/ml incubated for 24 hrs by broth microdilution method; type: functional, organism-based
[21] = tested on: Caenorhabditis elegans; test: Nematicidal activity against Caenorhabditis elegans incubated for 18 hrs; type: functional; details: for LC50: read-out: LD50 (the source's name)
[22] = tested on: Wickerhamomyces anomalus; test: Antifungal activity against Pichia anomala DSM 6766 at 66 ug/ml incubated for 48 hrs by broth microdilution method; type: functional, organism-based
[23] = tested on: Bacillus subtilis; test: Antibacterial activity against Bacillus subtilis DSM 10 at 66 ug/ml incubated for 24 hrs by broth microdilution method; type: functional, organism-based
[24] = tested on: Micrococcus luteus; test: Antibacterial activity against Micrococcus luteus DSM 1790 at 66 ug/ml incubated for 24 hrs by broth microdilution method; type: functional, organism-based
[25] = tested on: Schizosaccharomyces pombe; test: Antifungal activity against Schizosaccharomyces pombe DSM 70572 at 66 ug/ml incubated for 48 hrs by broth microdilution method; type: functional, organism-based
[26] = tested on: Candida albicans; test: Antifungal activity against Candida albicans DSM 1665 incubated for 48 hrs by broth microdilution method; type: functional
[27] = tested on: Schizosaccharomyces pombe; test: Antifungal activity against Schizosaccharomyces pombe DSM 70572 incubated for 48 hrs by broth microdilution method; type: functional
[28] = tested on: Wickerhamomyces anomalus; test: Antifungal activity against Pichia anomala DSM 6766 incubated for 48 hrs by broth microdilution method; type: functional
[29] = tested on: Mucor hiemalis; test: Antifungal activity against Mucor hiemalis DSM 2656 incubated for 48 hrs by broth microdilution method; type: functional
[30] = tested on: Rhodotorula glutinis; test: Antifungal activity against Rhodotorula glutinis DSM 10134 incubated for 48 hrs by broth microdilution method; type: functional
[31] = tested on: Pseudomonas aeruginosa; test: Antibacterial activity against Pseudomonas aeruginosa DSM PA14 incubated for 24 hrs by broth microdilution method; type: functional, organism-based
[32] = Homo sapiens, PC-3, 120 h, read-out: IC50
[33] = Homo sapiens, SK-OV-3, 120 h, read-out: IC50
[34] = Homo sapiens, MCF7, 120 h, read-out: IC50
[35] = Homo sapiens, KB 3-1, 120 h, read-out: IC50
[36] = Homo sapiens, A549, 120 h, read-out: IC50
[37] = Homo sapiens, A-431, 120 h, read-out: IC50
[38] = Mus musculus, L929, 120 h, read-out: IC50

Compound	IC50 [4, 35] [nM]	MIC [9] [µg/mL]	Activity [14]	Activity [15]	IC50 ([1]; pc-3)	Activity [16]	Activity [17]	IC50 ([2]; sk-ov-3)	IC50 ([3]; mcf7)	Activity [18]	Activity [19]	Activity [20]	LC50 [21] [µg/mL]	Activity [22]	Activity [23]	Activity [24]	IC50 ([5]; a549)	Activity [25]	IC50 ([6]; a-431)	IC50 ([7]; l929)	other results
C/C(=C\c1csc(C)n1)[C@@H]1C[C@@H]2O[C@]2(C)CCC[C@H](C)[C@H](O)[C@@H](C)C(=O)C(C)(C)[C@@H](O)CC(=O)O1 [PATUPILONE]	0.089																				IC50 [1, 32]: 1.6 nM; IC50 [2, 33]: 0.28 nM; IC50 [3, 34]: 0.24 nM; IC50 [5, 36]: 0.069 nM; IC50 [6, 37]: 0.079 nM; IC50 [7, 38]: 1.4 nM
CN(C)[C@@H]1C(=O)C(C(N)=O)=C(O)[C@@]2(O)C(=O)C3=C(O)c4c(O)cccc4[C@@](C)(O)[C@H]3[C@H](O)[C@@H]12.Cl		2.1																			MIC [8]: 4.1 µg/mL; MIC [10]: 4.2 µg/mL; MIC [11]: 33.3 µg/mL; MIC [12]: 2.4 µg/mL
NC[C@H]1O[C@H](O[C@H]2[C@H](O)[C@@H](O[C@H]3O[C@H](CO)[C@@H](O)[C@H](N)[C@H]3O)[C@H](N)C[C@@H]2N)[C@H](O)[C@@H](O)[C@@H]1O [KANAMYCIN]																					MIC [13]: 4.1 µg/mL (≈ 8.46 µM)
O=C(O)/C=C/C[C@H]1[C@@H](O)C=CC12Oc1cccc3cccc(c13)O2	40100	66.6 (≈ 205 µM)	inactive	inactive	Not Active	inactive	inactive	Not Active	Not Active	inactive	inactive	inactive	25 (≈ 77.1 µM)	inactive	inactive	inactive	Not Active	inactive	Not Active	Not Active	
O=C(O)/C=C/C=C1\[C@@H](O)C=CC12Oc1cccc3cccc(c13)O2		66.6 (≈ 207 µM)	inactive	inactive	Not Active	inactive	inactive	Not Active	Not Active	inactive	inactive	inactive	50 (≈ 155 µM)	inactive	inactive	inactive	Not Active	inactive	Not Active	Not Active	IC50 ([4]; kb 3-1): Not Active
NYSTATIN																					MIC [26]: 8.3 µg/mL; MIC [27]: 8.3 µg/mL; MIC [28]: 8.3 µg/mL; MIC [29]: 4.2 µg/mL; MIC [30]: 1 µg/mL
IVERMECTIN																					LD50 [21]: 1 µg/mL
GENTAMICIN																					MIC [31]: 1 µg/mL
O=C(O)/C=C/C=C1\[C@@H](O)C[C@H](O)C12Oc1cccc3cccc(c13)O2		66.6 (≈ 196 µM)	inactive	inactive	Not Active	inactive	inactive	Not Active	Not Active	inactive	inactive	inactive	50 (≈ 147 µM)	inactive	inactive	inactive	Not Active	inactive	Not Active	Not Active	IC50 ([4]; kb 3-1): Not Active
O=C(O)/C=C/C=C1\C(=O)C=CC12Oc1cccc3cccc(c13)O2	800	4.2 (≈ 13.1 µM)	inactive			inactive	inactive			inactive		inactive	50 (≈ 156 µM)	inactive							IC50 [1, 32]: 900 nM; IC50 [2, 33]: 600 nM; IC50 [3, 34]: 400 nM; MIC [10]: 8.3 µg/mL (≈ 25.9 µM); MIC ([27]; DSM 70572, 48 h): 33.3 µg/mL (≈ 104 µM); MIC [12]: 4.2 µg/mL (≈ 13.1 µM); IC50 [5, 36]: 2200 nM; MIC ([29]; DSM 2656, 48 h): 16.7 µg/mL (≈ 52.1 µM); MIC ([30]; DSM 10134, 48 h): 33.3 µg/mL (≈ 104 µM); IC50 [6, 37]: 200 nM; IC50 [7, 38]: 600 nM
